Results taken from US10053485B2, “Cytotoxic agents that preferentially target leukemia inhibitory factor (LIF) for the treatment of malignancies and as new contraceptive agents” (Evestra, Inc., priority 2015, dated 2018).

What was measured:
[1] = tested on: MDA-MB-231 (TNBC) Xenograft; test: Tumor xenograft study, MDA-MB-231; type: in vivo, mice
Method: Uniform suspensions of human breast cancer MDA-MB-231 and human ovarian cancer IGROV1 cells (2×10^6) in 100 μL (0.02 carboxymethyl cellulose in phosphate buffered saline) were injected subcutaneously into the right and left flanks of 4- to 5-week-old female athymic nude mice (Charles River Laboratories). After 10 days, when the tumor […] reaches 100 mm^3, the mice were randomly allocated to 3 groups of each containing 6 animals. […] All drug was suspended in PBS followed by sonication (15 seconds with an intermittent interval of 5 seconds) for 1 minute. Tumors were allowed to reach palpability before drug intervention. Tumor size was measured every 3 days using digital Vernier Calipers and tumor volume was calculated using the ellipsoid formula [D×(d2)]/2, where D is the large diameter of the tumor and d represents the small diameter. On day 31, the mice were euthanized and tumors were harvested for protein and gene expression studies. […] FIG. 6B depicts a graph of tumor volume vs. time for the administration of EC300 at 2.5 mg/kg twice weekly in the MDA-MB-231 (TNBC) Xenograft. […] FIG. 7 depicts a graph of tumor volume vs. time for the administration of EC300 at 5 mg/kg 5 days per week in the IGROV1 (Ovarian) Xenograft. […] STAT3 phosphorylation is reduced in tumors that underwent treatment compared to control which is an indication of LIF downstream target.

T47D breast cancer cells = test: Soft agar colony formation assay; type: cell-based, human
Method: Colonies of cancer cells formed in soft agar in the presence and absence of the testing compounds is a standard assay to interpret in-vitro tumorigenic potential in the basal layer. Agar was prepared by mixing 1% DNA grade agar melted and cooled to 40° C. with an equal volume of (2×) Dulbecco's Modified Eagle's Medium (DMEM) to obtain 0.5% agar that was dispersed in a 6-well plate and allowed to solidify. A total of 0.6% agar was prepared in RPMI medium and mixed together with T47D cells (0.5×10^6 cells/mL) and immediately plated on the basal layer in the presence or absence of testing compounds. The cultures were incubated at 37° C. in a CO2 incubator for 2 weeks, and colonies were stained with 0.005% crystal violet and observed under a light microscope.

HCT-116 = test: NCI-60 screen, Colon Cancer panel; type: cell-based; conditions: Homo sapiens, HCT-116, 48 h
TK-10 = test: NCI-60 screen, Renal Cancer panel; type: cell-based; conditions: Homo sapiens, TK-10, 48 h
K-562 = test: NCI-60 screen, Leukemia panel; type: cell-based; conditions: Homo sapiens, K562, 48 h
[2] = tested on: PC3 (AR− Prostate Cancer); test: Short term (72 h) cytotoxicity assay; type: cell-based; conditions: Homo sapiens, PC3, 72 h cytotoxicity
COLO 205 = test: NCI-60 screen, Colon Cancer panel; type: cell-based; conditions: Homo sapiens, COLO 205, 48 h
T-47D = test: NCI-60 screen, Breast Cancer panel; type: cell-based; conditions: Homo sapiens, T47D, 48 h
HOP-92 = test: NCI-60 screen, Non-Small Cell Lung Cancer panel; type: cell-based; conditions: Homo sapiens, HOP-92, 48 h
[3] = tested on: LIF-overexpressing MCF-7 (MCF-7 LIF) human breast cancer cells; test: LIF specificity assay, LIF-overexpressing cells; type: cell-based
IGROV1 = test: NCI-60 screen, Ovarian Cancer panel; type: cell-based; conditions: Homo sapiens, IGROV-1; IGROV1, 48 h, SRB; read-out: GI50 (log10GI50) (converted)
Method: Additional four, 10-fold or ½ log serial dilutions are made to provide a total of five drug concentrations plus control.
For adherent cells, the assay is terminated by the addition of cold TCA. Cells are fixed in situ by the gentle addition of 50 μl of cold 50% (w/v) TCA (final concentration, 10% TCA) and incubated for 60 minutes at 4° C. The supernatant is discarded, and the plates are washed five times with tap water and air dried. Sulforhodamine B (SRB) solution (100 μl) at 0.4% (w/v) in 1% acetic acid is added to each well, and plates are incubated for 10 minutes at room temperature. After staining, unbound dye is removed by washing five times with 1% acetic acid and the plates are air dried. […] Using the seven absorbance measurements [time zero, (Tz), control growth, (C), and test growth in the presence of drug at the five concentration levels (Ti)], the percentage growth is calculated at each of the drug concentrations levels.
Three dose response parameters are calculated for each experimental agent. […] The drug concentration resulting in total growth inhibition (TGI) is calculated from Ti=Tz. […] Values are calculated for each of these three parameters if the level of activity is reached; however, if the effect is not reached or is exceeded, the value for that parameter is expressed as greater or less than the maximum or minimum concentration tested.

NCI/ADR-RES = test: NCI-60 screen, Ovarian Cancer panel; type: cell-based; conditions: Homo sapiens, 48 h
[4] = tested on: SMAD phosphorylation (TGF-beta); test: Phosphorylation of SMAD; conditions: through blocking TGF-beta
SK-MEL-28 = test: NCI-60 screen, Melanoma panel; type: cell-based; conditions: Homo sapiens, SK-MEL-28, 48 h
OVCAR-8 = test: NCI-60 screen, Ovarian Cancer panel; type: cell-based; conditions: Homo sapiens, OVCAR-8, 48 h
UACC-62 = test: NCI-60 screen, Melanoma panel; type: cell-based; conditions: Homo sapiens, UACC-62, 48 h
[5] = read-out: GI50 (log10GI50) (converted)
[6] = read-out: LC50 (log10LC50) (converted)

## C#CC(F)(F)[C@]1(O)CCC2C3CCC4=CC(=O)CCC4=C3C(c3ccc(C4CC4)cc3)C[C@@]21C (stereo partly drawn) [EC330, 17α-(1,1-difluoro-2-propyn-1-yl)-17β-hydroxy-11β-[4-p-(cyclopropyl)phenyl]estra-4,9-dien-3-one]
[1]; MDA-MB-231 xenograft tumors, FIG. 9
  apoptosis in xenograft tumors: induced apoptosis dose dependently
[1]; human triple negative breast cancer (TNBC) model
  tumor growth: significantly reduced
[1]; treated vs. control, 'It is believed'
  STAT3 phosphorylation in tumors: reduced
T47D breast cancer cells; 100 nM concentration, in words
  inhibition in the number of colonies formed: complete inhibition
T47D breast cancer cells; Homo sapiens, T47D, 5 nM concentration, read-out: inhibition in the number of colonies formed
  inhibition at 0.005 µM: 50%
HCT-116; [5]
  GI50: 2.82 µM
HCT-116; [6]
  CC50: > 100 µM
TK-10; [5]
  GI50: 2.63 µM
TK-10; [6]
  CC50: > 100 µM
K-562; [5]
  GI50: 2.19 µM
K-562; [6]
  CC50: > 100 µM
[2]
  IC50: 0.03 µM
COLO 205; [5]
  GI50: 0.794 µM
COLO 205; [6]
  CC50: 8.91 µM
T-47D; [5]
  GI50: < 0.01 µM
T-47D; [6]
  CC50: > 100 µM
HOP-92; [5]
  GI50: < 0.01 µM
HOP-92; [6]
  CC50: 0.0191 µM
[3]; Homo sapiens, MCF7, read-out: MCF-7 LIF IC50
  IC50: 0.08 µM
[3]; LIF-overexpressing vs. unmodified MCF-7, in words
  vulnerability of LIF overexpressing cells to cell death: more vulnerable to cell death
IGROV1
  GI50: < 0.01 µM
NCI/ADR-RES; [5]
  GI50: 0.0257 µM
NCI/ADR-RES; [6]
  CC50: > 100 µM
[4]
  phosphorylation of SMAD: indirectly diminish the phosphorylation of SMAD
SK-MEL-28; [5]
  GI50: 1.78 µM
SK-MEL-28; [6]
  CC50: 7.76 µM
OVCAR-8; [5]
  GI50: 1.55 µM
OVCAR-8; [6]
  CC50: > 100 µM
UACC-62; [5]
  GI50: 1.95 µM
UACC-62; [6]
  CC50: > 100 µM
